Experimental data as given in patent US20110039721A1, “METHOD FOR PREDICTION ABOUT CARCINOGENICITY OF SUBSTANCE IN RODENT” (Chemicals Evaluation and Research Institute, priority 2007, published 2011).

Assays:
rodent = settings: classification C+/C−; cited from earlier work
liver = settings: in vivo; cited from earlier work
[1] = classification M+/M−; cited from earlier work
[2] = test system: mRNA expressed from the genes (A) to (D) in rat liver; experiment: Behavior of genes (mRNA expression level, oligo-DNA microarray) in rat liver after 28-day oral administration; type: in vivo
Summary of the method: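 Groups of four male F344 SPF rats aged 5 weeks are gavaged once a day for 28 days with test chemical in solvent or with solvent alone at equal volume. Total RNA comes from liver taken on day 28. Fold change of 1.5 or 1/1.5 versus control, directionally consistent, defines significance.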

## O=CCCCC=O [TS081, Glutaraldehyde]
rodent
  Carcinogenicity: C−
liver
  Liver carcinogenicity: Cr−
[1]
  Mutagenicity by Ames test: M+
[2]; Gene No. 154, Rn.185941, group (C)
  Behavior of gene caused by administration of chemical substance: −
[2]; Gene No. 533, Rn.106184, group (C)
  Behavior of gene caused by administration of chemical substance: +
[2]; Gene No. 725, Rn.108075, group (C)
  Behavior of gene caused by administration of chemical substance: −
[2]; Gene No. 813, Rn.201760, group (C)
  Behavior of gene caused by administration of chemical substance: −
[2]; Gene No. 893, Rn.164817, group (C)
  Behavior of gene caused by administration of chemical substance: −
[2]; Gene No. 1119, Rn.9757, group (C)
  Behavior of gene caused by administration of chemical substance: −
[2]; Gene No. 1131, Rn.144946, group (C)
  Behavior of gene caused by administration of chemical substance: −
[2]; Gene No. 1163, Rn.11766, group (C)
  Behavior of gene caused by administration of chemical substance: −
[2]; Gene No. 1334, Rn.120914, group (C)
  Behavior of gene caused by administration of chemical substance: −
[2]; Gene No. 1494, Rn.1430, group (B)
  Behavior of gene caused by administration of chemical substance: −
[2]; Gene No. 1562, Rn.14744, group (C)
  Behavior of gene caused by administration of chemical substance: −
[2]; Gene No. 1741, Rn.1647, group (C)
  Behavior of gene caused by administration of chemical substance: −
[2]; Gene No. 1993, Rn.18728, group (C)
  Behavior of gene caused by administration of chemical substance: −
[2]; Gene No. 2026, Rn.167075, group (A)
  Behavior of gene caused by administration of chemical substance: −
[2]; Gene No. 2045, Rn.19329, group (B)
  Behavior of gene caused by administration of chemical substance: −
[2]; Gene No. 2203, Rn.21240, group (B)
  Behavior of gene caused by administration of chemical substance: −
[2]; Gene No. 2494, Rn.23969, group (C)
  Behavior of gene caused by administration of chemical substance: −
[2]; Gene No. 2546, Rn.24561, group (C)
  Behavior of gene caused by administration of chemical substance: −
[2]; Gene No. 3776, Rn.43232, group (C)
  Behavior of gene caused by administration of chemical substance: −
[2]; Gene No. 3929, Rn.4620, group (C)
  Behavior of gene caused by administration of chemical substance: −
[2]; Gene No. 4095, Rn.119024, group (C)
  Behavior of gene caused by administration of chemical substance: −
[2]; Gene No. 4218, Rn.167075, group (A)
  Behavior of gene caused by administration of chemical substance: −
[2]; Gene No. 4846, Rn.144554, group (A)
  Behavior of gene caused by administration of chemical substance: −
[2]; Gene No. 4973, Rn.118529, group (C)
  Behavior of gene caused by administration of chemical substance: +
[2]; Gene No. 5600, Rn.9836, group (A)
  Behavior of gene caused by administration of chemical substance: −
[2]; Gene No. 5634, Rn.9862, group (C)
  Behavior of gene caused by administration of chemical substance: −
[2]; Gene No. 5726, Rn.9939, group (D)
  Behavior of gene caused by administration of chemical substance: −
[2]; Gene No. 5878, Rn.143213, group (C)
  Behavior of gene caused by administration of chemical substance: −
[2]; Gene No. 6026, Rn.167685, group (C)
  Behavior of gene caused by administration of chemical substance: −
[2]; Gene No. 6182, Rn.5834, group (A)
  Behavior of gene caused by administration of chemical substance: −
[2]; Gene No. 6303, Rn.123063, group (C)
  Behavior of gene caused by administration of chemical substance: −
[2]; Gene No. 6620, Rn.120914, group (C)
  Behavior of gene caused by administration of chemical substance: −
[2]; Gene No. 6742, Rn.9779, group (C)
  Behavior of gene caused by administration of chemical substance: +
